Results published in US9581587B2, “Sperm staining and sorting methods” (INGURAN, LLC, priority 2011, dated 2017).

Key:
[1] = system: membrane compromised sperm; experiment: Dead gate intensity divided by live gate intensity, flow cytometer (Example 5); type: cell-based; conditions: for ability to create a dead gate population (ordering of the four dyes): from dead and live intensity data of Table 13
Protocol: (§1) A single Jersey bull was collected at an initial sperm concentration 1900×10^6 sperm/ml in a volume of 5 ml. The progressive motility of the sperm was 65% with normal morphologies greater than 65%.
(§2) The entire ejaculate of sperm was suspended in first staining buffer, specifically a 7.4 pH TALP described in TABLE 1, to a concentration of 160×10^6 sperm per mL (determined on nucleocounter) and divided into three aliquots of about 20 mL into 50 mL Falcon tubes and pre-warmed for 10 minutes at 34° C. The DNA selective fluorescent dye, Hoechst 33342, was added and samples were held at 34° C. for 60 minutes. 3 different Hoechst 33342 Stain Levels were used=12 μL, 14 μL and 16 μL per 2 mL (effective concentrations of 48 μM, 56 μM, 64 μM).
(§3) Preparation of the second buffer including the dead quenching dye—A 2 L bag of TALP, described in TABLE 1, was adjusted to pH 5.60 using HCl and then sterile filtered. […] For each of the four dyes tested (R40-red food dye No. 40, Y5—yellow food dye No. 5, Y6—yellow food dye No. 6 and PR—phenol red), an appropriate number of milligrams of each powder was placed in a Erlenmeyer Flask and then an exact amount of TALP pH 5.60 was added to create a 250 μM concentration of the dye. The result was a working TALP stock for each dye with a 100% (125 μM) relative amount of dye 50% relative (62.5 μM) and 20% relative (25 μM) solutions were made by dilution of 100% by TALP pH 5.60.
(§4) Single tubes of stained sperm at each of the three Hoechst 33342 concentrations were treated with TALP pH 5.60 which had no dead quenching dye present. Single tubes using Vitamin B12 (red colored chemical) with stock concentration of 15 μM (12% relative) were tested.
(§5) After this “bulk” staining for 60 minutes, 1 mL aliquots of stained sperm were combined with 1 mL aliquots of the second buffer including the dead quenching dyes. Samples sat for approximately 30 minutes at room temperature before being analyzed on a MoFlo SX (Beckman Coulter, USA) sperm sorting flow cytometer. Event rates were held as close to 13,000 as possible at the point of data acquisition.
(§6) The total number of individual treatments was 42 tubes, each containing 2 mL of stained sample. The alignment of the sorter was established using nuclei and confirmed with live sample from the 50% Red 40 series. Once good alignment was established, each tube was placed on the sorter long enough to establish a stabile dead gate population (about 30 seconds) and then a screenshot was taken and saved as a .jpeg image. This approach of rapidly documenting each sample is used to assure the most consistent alignment between all samples. Realignment of sorter will not cause differences in the intensities of live and dead gate populations but will cause differences in split quality.
(§7) FIG. 4 illustrates an example histogram. The ratio of dead gate intensity divided by live gate intensity is created by dividing the distance “A” by the distance “B” shown as a percentage. Lower values mean higher levels of quenching. The ratio of peak height divided by valley height is created by dividing the distance “C” by the distance “D”. A value of 1.00 means “no split” while higher values mean “better splits”.

sperm [2] = experiment: Split quality, height of peak divided by height of valley (Example 5); type: cell-based, Jersey bull
Protocol: as §1, §2, §3, §4, §5, §6, §7

[3] = system: membrane compromised sperm; experiment: Dead gate intensity, yellow 5 and phenol red at higher concentrations (Example 6); type: cell-based, Jersey bull; conditions: for Intensity: Hoechst 12 μL/2 mL
Protocol: (§8) A single Jersey bull was collected at an initial sperm concentration 1810×10^6 sperm/ml in a volume of 3.9 ml. The progressive motility of the sperm was 65% with normal morphologies greater than 50%.
(§9) Sperm were suspended at 320 million per mL in 30 mL a first buffer, (TALP described in table 1 at a pH 7.4) with 12 μL of Hoechst 33342 per 2 mL (48 μM) of stain and incubated for 1 hour at 34° C. Stained sperm was then placed as 1 mL aliquots in sample tubes and a 1 mL volume of the appropriate TALP was added. The same second buffer was used as example 1, namely a modified 5.60 pH TALP.
(§10) Each of the stained samples was sorted on a MoFlo SX (Beckman Coulter, USA) as described in Example 6. Screen shots were taken and the dead gate intensity and the split quality were measured in the same way described in Example 1 and recorded in TABLE 14.

sperm [4] = experiment: Split quality PV (Example 6); type: cell-based, Jersey bull; conditions: for PV: Hoechst 12 μL/2 mL, resulting pH 6.70
Protocol: as §8, §9, §10

sperm [5] = experiment: Post thaw DNA fragmentation Elk (Example 3); type: cell-based
Protocol: Each of deer and elk were collected in the Tris-egg yolk catch fluid described as a catch media in Example 1, and shipped for sorting.
A portion of each of the deer and the elk were stained by the red food dye No. 40 treatment 40% with 16 μL Hoechst 33342 and the yellow food dye No. 6 treatment with 14 μL Hoechst 33342 as described in Example 1.
Samples were each bulk sorted with the same machine and parameters described in Example 1. Both sorted X and sorted Y sperm were collected into a single catch. The sorted samples were then frozen like those described in Example 1.
Frozen thawed samples were then tested for post thaw motilities and post thaw DNA fragmentation. Post thaw motilities were slightly higher in Elk sorted with a yellow quencher, while a more significant difference existed in progressive motility. In Table 10, post thaw DNA fragmentation in Elk can be seen at about double after 48 hours when red food dye No. 40 is compared to yellow food dye No. 6 as a dead quencher.

[6] = dye 25 μM, Average over Hoechst levels
[7] = dye 62.5 μM, Average over Hoechst levels
[8] = dye 62.5 μM, Hoechst 12 μL/2 mL
[9] = dye 62.5 μM, Hoechst 14 μL/2 mL
[10] = dye 62.5 μM, Hoechst 16 μL/2 mL
[11] = dye 125 μM, Average over Hoechst levels

Row | SMILES | Dead Intensity [1, 6] [%] | Dead Intensity ([1]; dye 25 μM, Hoechst 12 μL/2 mL) [%] | Dead Intensity ([1]; dye 25 μM, Hoechst 14 μL/2 mL) [%] | Dead Intensity ([1]; dye 25 μM, Hoechst 16 μL/2 mL) [%] | Dead Intensity [1, 7] [%] | Dead Intensity [1, 8] [%] | Dead Intensity [1, 9] [%] | Dead Intensity [1, 10] [%] | Dead Intensity [1, 11] [%] | Dead Intensity ([1]; dye 125 μM, Hoechst 12 μL/2 mL) [%] | Dead Intensity ([1]; dye 125 μM, Hoechst 14 μL/2 mL) [%] | Dead Intensity ([1]; dye 125 μM, Hoechst 16 μL/2 mL) [%] | Height of Peak/Height of Valley (sperm [2]; dye 25 μM, Hoechst 16 μL/2 mL) | Height of Peak/Height of Valley (sperm [2]; [10]) | ability to create a dead gate population (ordering of the four dyes) [1] | Height of Peak/Height of Valley (sperm [2]; dye 125 μM, Hoechst 14 μL/2 mL) | Intensity ([3]; dye 62.5 μM, resulting pH 6.70) [%] | PV (sperm [4]; dye 62.5 μM) | other results
1 | O=S1(=O)OC(c2ccc(O)cc2)(c2ccc(O)cc2)c2ccccc21 [Phenol Red, phenolsulfonphthalein] | 94 | 94 | 97 | 90 | 87 | 90 | 90 | 80 | 79 | 80 | 80 | 78 | 1.00 | 1.00 | – | – | – | – | Height of Peak/Height of Valley (sperm [2]; dye 125 μM, Hoechst 16 μL/2 mL): 1.00; amount of dye needed for a similar dead gate intensity ratio as red food dye No. 40 and yellow food dye No. 6 [3]: twelve; Intensity ([3]; dye 125 μM, resulting pH 6.70): 79%; Intensity ([3]; dye 250 μM, resulting pH 6.70): 70%; Intensity ([3]; dye 500 μM, resulting pH 6.70): 67%; Intensity ([3]; dye 750 μM, resulting pH 6.70): 55%; Intensity ([3]; dye 875 μM, resulting pH 6.70): 45%; Intensity ([3]; dye 1250 μM, second buffer pH 5.60, resulting pH 6.70): 41%; split improvement in understained sample (sperm [4]; 12 μL/2 mL Hoechst 33342, control samples had no split): created a split improvement; PV (sperm [4]; dye 125 μM): 1.00
2 | COc1cc(S(=O)(=O)O)c(C)cc1N=Nc1c(O)ccc2cc(S(=O)(=O)O)ccc12 [Red 40, 6-hydroxy-5-[(2-methoxy-5-methyl-4-sulfophenyl)azo]-2-naphthalenesulfonic acid, reference compound] | 68 | 68 | 72 | 65 | 52 | 53 | 53 | 50 | 38 | 37 | 41 | 35 | 1.00 | 1.00 | about equal and better than the remaining dyes | 2.00 | 53 | 1.00 | post thaw DNA fragmentation compared to yellow food dye No. 6 (sperm [5]): about double; DNA fragmentation Post Sort (sperm [5]; elk, 0 h): 0%; DNA fragmentation Pre-sort (sperm [5]; elk, 0 h): 2.3%; DNA fragmentation Post Sort (sperm [5]; elk, 24 h): 0.3%; DNA fragmentation Pre-sort (sperm [5]; elk, 24 h): 5.6%; DNA fragmentation Post Sort (sperm [5]; elk, 48 h): 0.7%; DNA fragmentation Pre-sort (sperm [5]; elk, 48 h): 6%; Height of Peak/Height of Valley (sperm [2]; dye 25 μM, Average for 12 μL and 14 μL stain series): 2.00
3 | O=S(=O)([O-])c1ccc(N=Nc2c(O)ccc3cc(S(=O)(=O)[O-])ccc23)cc1.[Na+].[Na+] [Yellow 6, Disodium 6-hydroxy-5[(4-sulfophenyl)azo]-2-naphthalenesulfononate] | 71 | 68 | 74 | 70 | 51 | 50 | 52 | 52 | 39 | 37 | 40 | 40 | – | 1.00 | about equal and better than the remaining dyes | 1.80 | 50 | 1.00 | DNA fragmentation Post Sort (sperm [5]; post thaw 0 HR): 0%; DNA fragmentation Pre-sort (sperm [5]; post thaw 0 HR): 2.3%; DNA fragmentation Post Sort (sperm [5]; post thaw 24 HR): 0%; DNA fragmentation Pre-sort (sperm [5]; post thaw 24 HR): 3.3%; DNA fragmentation Post Sort (sperm [5]; post thaw 48 HR): 0.3%; DNA fragmentation Pre-sort (sperm [5]; post thaw 48 HR): 3.7%; Height of Peak/Height of Valley (sperm [2]; [8]): 1.70
